Laboratory results as given in ChEMBL document CHEMBL1144086, “Tryptamine derived amides and acetogenins from the seeds of Rollinia mucosa” (J Nat Prod, 1999).
Values after ≈ are worked out from the molar mass of the structure shown.

Legend:
A549 = assay: Cytotoxicity against human A549 cells; type: functional; conditions: read-out: ED50 (the source's name)
PC-3 = assay: Cytotoxicity against human PC-3 cells; type: functional; conditions: read-out: ED50 (the source's name)
MCF7 = assay: Cytotoxicity against human MCF7 cells; type: functional; conditions: read-out: ED50 (the source's name)
HT-29 = assay: Cytotoxicity against human HT-29 cells; type: functional; conditions: read-out: ED50 (the source's name)
MIA PaCa-2 = assay: Cytotoxicity against human PaCa2 cells; type: functional; conditions: read-out: ED50 (the source's name)
[1] = (§1) Toxicity in Artemia salina; type: organism-based; conditions: in vivo
[2] = Cytotoxicity against human […] cells; type: functional; conditions: read-out: ED50 (the source's name)
Artemia salina = assay: as §1; type: organism-based; conditions: in vivo

Row | Compound | EC50 (A549) [µg/mL] | EC50 (PC-3) [µg/mL] | EC50 (MCF7) [µg/mL] | EC50 (HT-29) [µg/mL] | EC50 (MIA PaCa-2) [µg/mL] | LC50 [1] [µg/mL] | EC50 [2] [µg/mL] | LC50 (Artemia salina) [×10⁻² ug/ml]
1 | CCCCCCCCCCCCCCCCCCCCCC(=O)NCCc1c[nH]c2ccccc12 | > 10 | > 10 | > 10 | > 10 | > 10 | > 500 | > 10 | 
2 | CCCCCCCCCCCCCCCCCCCCCCCCCC(=O)NCCc1c[nH]c2ccccc12 | > 10 | > 10 | > 10 | > 10 | > 10 | > 500 | > 10 | 
3 | CCCCCCCCCCCCCCCCCCCCCCC(=O)NCCc1c[nH]c2ccccc12 | > 10 | > 10 | > 10 | > 10 | > 10 | > 500 | > 10 | 
4 | CCCCCCCCCCCCCCCC(=O)NCCc1c[nH]c2ccccc12 | > 10 | > 10 | > 10 | > 10 | > 10 | > 500 | > 10 | 
5 | CCCCCCCCCCCCCCCCCC(=O)NCCc1c[nH]c2ccccc12 | > 10 | > 10 | > 10 | > 10 | > 10 | > 500 | > 10 | 
6 | CCCCCCCCCCCCCCCCCCCC(=O)NCCc1c[nH]c2ccccc12 | > 10 | > 10 | > 10 | > 10 | > 10 | > 500 | > 10 | 
7 | CCCCCCCCCCCCCCCCCCCCCCCC(=O)NCCc1c[nH]c2ccccc12 | > 10 | > 10 | > 10 | > 10 | > 10 | > 500 | > 10 | 
8 | CCCCCCCCCCCCCCCCCCCCCCCCC(=O)NCCc1c[nH]c2ccccc12 | > 10 | > 10 | > 10 | > 10 | > 10 | > 500 | > 10 | 
9 | CCCCCCCCCC[C@H](O)[C@H]1CC[C@H]([C@H]2CC[C@H]([C@H](O)CCCCCCCCCCCCC3=C[C@H](C)OC3=O)O2)O1 [BULLANIN] | 0.47 (≈ 0.774 µM) | < 0.001 | 1.35 (≈ 2.22 µM) | 1.69 (≈ 2.78 µM) | 1.92 (≈ 3.16 µM) |  | < 0.001 | 1.6
10 | COc1cccc2c1C(=O)c1c(O)c3c(c(O)c1C2=O)C[C@@](O)(C(=O)CO)C[C@@H]3O[C@H]1C[C@H](N)[C@H](O)[C@H](C)O1 [DOXORUBICIN] | 0.89 (≈ 1.64 µM) | 0.0056 (≈ 0.0103 µM) | 3.6 (≈ 6.62 µM) | 3.7 (≈ 6.81 µM) | 0.0011 (≈ 0.00202 µM) |  | 0.0083 (≈ 0.0153 µM) | 
11 | CCCCCCCCCC[C@H](O)[C@@H]1CC[C@H]([C@H]2CC[C@@H]([C@H](O)CCCCCCCCCCCCC3=C[C@H](C)OC3=O)O2)O1 [MEMBRANACIN] | 0.4 (≈ 0.659 µM) | < 0.001 | 2.18 (≈ 3.59 µM) | 3.04 (≈ 5.01 µM) | 2.1 (≈ 3.46 µM) |  | < 0.001 | 5
